The GI50 is the concentration that inhibits growth by half. Usually inhibition stands for how much of the control response was suppressed. Lower therefore signals a response near the control. What is called pIC50 is the IC50 on a negative log10 scale, so that one unit is a factor of ten. As usually defined, the IC50 is the concentration at which inhibition is half-maximal.

The test system of assay [1] is MCF7. The assay is described as follows: Cytotoxicity against human MCF7 cells assessed as reduction in cell viability incubated for 48 hrs by MTT assay. Type of assay: functional.
Assay [2] relates to NCI-H460. The assay is described as follows: Cytotoxicity against human NCI-H460 cells assessed as reduction in cell viability incubated for 48 hrs by MTT assay. It counts as functional. Background: Tetrazolium dyes change colour on reduction, which living cells bring about.
Assay [3] concerns A549. Kind of assay: Induction of apoptosis in human A549 cells assessed as early apoptotic cells for 24 hrs by FITC-annexin V/PI based flow cytometry. Type of assay: functional.
Assay [4] deals with C6. Kind of assay: Induction of apoptosis in rat C6 cells assessed as early apoptotic cells for 24 hrs by FITC-annexin V/PI based flow cytometry. It counts as functional.
In assay [5] the test system is C6. The assay is described as follows: Induction of apoptosis in rat C6 cells assessed as late apoptotic cells for 24 hrs by FITC-annexin V/PI based flow cytometry. Type of assay: functional.
Assay [6] has as its system A549. The assay is described as follows: Induction of apoptosis in human A549 cells assessed as late apoptotic cells for 24 hrs by FITC-annexin V/PI based flow cytometry. Type of assay: functional. A general note: In flow cytometry, cells or beads pass a laser one at a time.
Assay [7] concerns C6. The assay is described as follows: Inhibition of Akt in rat C6 cells measured after 30 mins by ELISA analysis. Type of assay: cell-based. On the technique in general: In an ELISA, binding on a coated surface is turned into a signal by an enzyme label.
Assay [8] deals with A549. The assay is described as follows: Anticancer activity against human A549 cells at 5 microg/ml relative to control. It counts as functional. As to conditions: dose 5 µg/ml.
The test system of the next assay is HT-29. Kind of assay: Cytotoxicity against human HT-29 cells. It counts as functional, cell-based.
Another assay deals with SMMC-7721. Kind of assay: Cytotoxicity against human SMMC-7721 cells. It counts as functional, cell-based.
The subject of assay [9] is NCI-H460. The assay is described as follows: Cytotoxicity against human NCI-H460 cells. It counts as functional, cell-based.
Assay [10] can be described thus: Cytotoxicity against human U-87 MG cells. Type of assay: functional, cell-based, U-87MG ATCC.
The subject of assay [11] is A549. The assay is described as follows: Antiproliferative activity against human A549 cells. Type of assay: functional, cell-based.
In a further assay the test system is MKN-45. The assay is described as follows: Cytotoxicity against human MKN-45 cells. Type of assay: functional, cell-based.
Assay [12] deals with HeLa. The assay is described as follows: Cytotoxicity against human HeLa cells assessed as reduction in cell viability measured after 48 hrs by MTS assay. It counts as functional, cell-based.
Assay [13] deals with K562. Kind of assay: Cytotoxicity against human K562 cells assessed as reduction in cell viability measured after 48 hrs by MTS assay. Type of assay: functional, cell-based. Particulars: K562, 48 h.
For assay [14], the target named is Nuclear factor NF-kappa-B complex (Homo sapiens) (UniProt Q00653+P19838+Q04206). The assay is described as follows: Inhibition of NF-kB (unknown origin). Type of assay: protein-complex assay.
The next assay relates to Jurkat. The assay is described as follows: Antiproliferative activity against human Jurkat cells assessed as reduction in cell viability incubated for 2 days by MTT assay. Type of assay: functional, cell-based. Particulars: 48 h.
The test system of assay [15] is MDA-MB-231. Kind of assay: Antiproliferative activity against human MDA-MB-231 cells assessed as reduction in cell viability incubated for 2 days by MTT assay. As to conditions: MDA-MB-231, 48 h. It counts as functional, cell-based.
The next assay concerns Enterobacter cloacae. The assay is described as follows: Inhibition of Enterobacter cloacae Metallo-beta-lactamase IMP-1.
The nature of assay [16]: Anticancer activity against human PBMC cells. Type of assay: functional, cell-based.
The test system of assay [17] is Panel NCI-60 (60 carcinoma cell lines). The assay is described as follows: Antitumor activity against human Panel NCI-60 (60 carcinoma cell lines) cells. Type of assay: functional.
The test system of a further assay is SF-268. Kind of assay: Cytotoxicity against human SF-268 cells assessed as reduction in cell viability by MTS assay. Type of assay: functional.
In assay [18] the test system is MCF7. The assay is described as follows: Cytotoxicity against human MCF7 cells assessed as reduction in cell viability by MTS assay. It counts as functional.
Assay [19] has as its system NCI-H460. The assay is described as follows: Cytotoxicity against human NCI-H460 cells assessed as reduction in cell viability by MTS assay. Type of assay: functional.
In assay [20] the test system is MCF7. The assay is described as follows: Anticancer activity against human MCF7 cells. Type of assay: functional, cell-based.
Assay [21] has as its system A549. Kind of assay: Anticancer activity against human A549 cells. Type of assay: functional, cell-based.
Assay [22] deals with HeLa. The assay is described as follows: Antiproliferative activity against human HeLa cells assessed as reduction in cell growth after 72 hrs. Type of assay: functional, cell-based.
A further assay relates to HepG2. The assay is described as follows: Anticancer activity against human HepG2 cells. It counts as functional, cell-based.
For the next assay, the system named is T47D. Kind of assay: Cytotoxicity against human T47D cells. It counts as functional, cell-based.
The test system of assay [23] is K562. Kind of assay: Anticancer activity against human K562 cells. It counts as functional, cell-based.
Assay [24] relates to HCT-116. Kind of assay: Anticancer activity against human HCT-116 cells. Type of assay: functional, cell-based.
Assay [25] in a line: Antiproliferative activity against human A375P cells. It counts as functional, cell-based.
The subject of assay [26] is MCF7. The assay is described as follows: Cytotoxicity against human MCF7 cells assessed as reduction in cell viability by MTT assay. It counts as functional, cell-based.
In assay [27] the test system is MDA-MB-231. The assay is described as follows: Cytotoxicity against human MDA-MB-231 cells assessed as reduction in cell viability by MTT assay. Type of assay: functional, cell-based.
For assay [28], the target named is Epidermal growth factor receptor (Homo sapiens, UniProt P00533). The assay is described as follows: Inhibition of EGFR (unknown origin).
The test system of assay [29] is HeLa. The assay is described as follows: Cytotoxicity against human HeLa cells assessed as reduction in cell viability by MTT assay. It counts as functional, cell-based.
In assay [30] the test system is HCT-116. The assay is described as follows: Cytotoxicity against human HCT-116 cells assessed as reduction in cell viability by MTT assay. Type of assay: functional, cell-based.

Molecules are shown by their SMILES. pIC50: −log10 of the molar value. In brackets after ≈: the same amount, converted by molar mass.

Sequence of Nuclear factor NF-kappa-B complex (Homo sapiens) (P19838 whole entry, looked up): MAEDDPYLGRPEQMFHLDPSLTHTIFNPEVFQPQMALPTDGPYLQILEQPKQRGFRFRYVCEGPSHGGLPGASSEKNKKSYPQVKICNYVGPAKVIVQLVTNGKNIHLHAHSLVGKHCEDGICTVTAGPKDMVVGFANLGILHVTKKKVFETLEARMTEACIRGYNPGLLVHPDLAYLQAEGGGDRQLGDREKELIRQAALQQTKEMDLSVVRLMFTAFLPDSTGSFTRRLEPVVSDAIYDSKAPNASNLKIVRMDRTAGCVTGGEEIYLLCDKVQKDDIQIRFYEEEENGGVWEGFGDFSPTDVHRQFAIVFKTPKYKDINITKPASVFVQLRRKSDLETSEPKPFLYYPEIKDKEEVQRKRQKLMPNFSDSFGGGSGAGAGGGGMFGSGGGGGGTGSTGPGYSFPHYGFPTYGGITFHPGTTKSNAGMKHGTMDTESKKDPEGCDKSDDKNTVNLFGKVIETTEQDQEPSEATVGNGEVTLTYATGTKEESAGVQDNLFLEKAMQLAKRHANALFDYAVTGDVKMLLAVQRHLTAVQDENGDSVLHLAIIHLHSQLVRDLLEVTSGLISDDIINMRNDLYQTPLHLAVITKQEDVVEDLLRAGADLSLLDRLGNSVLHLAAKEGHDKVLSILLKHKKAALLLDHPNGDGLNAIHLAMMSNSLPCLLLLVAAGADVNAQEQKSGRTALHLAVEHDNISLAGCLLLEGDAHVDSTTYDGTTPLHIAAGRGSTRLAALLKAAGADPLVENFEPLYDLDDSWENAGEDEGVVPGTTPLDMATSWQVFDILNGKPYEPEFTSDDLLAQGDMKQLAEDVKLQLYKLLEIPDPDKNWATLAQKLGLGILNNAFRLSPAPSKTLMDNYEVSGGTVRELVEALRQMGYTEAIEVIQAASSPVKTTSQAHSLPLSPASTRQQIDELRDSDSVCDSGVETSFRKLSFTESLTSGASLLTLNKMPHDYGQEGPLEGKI
Sequence of Nuclear factor NF-kappa-B complex (Homo sapiens) (Q00653 whole entry, looked up): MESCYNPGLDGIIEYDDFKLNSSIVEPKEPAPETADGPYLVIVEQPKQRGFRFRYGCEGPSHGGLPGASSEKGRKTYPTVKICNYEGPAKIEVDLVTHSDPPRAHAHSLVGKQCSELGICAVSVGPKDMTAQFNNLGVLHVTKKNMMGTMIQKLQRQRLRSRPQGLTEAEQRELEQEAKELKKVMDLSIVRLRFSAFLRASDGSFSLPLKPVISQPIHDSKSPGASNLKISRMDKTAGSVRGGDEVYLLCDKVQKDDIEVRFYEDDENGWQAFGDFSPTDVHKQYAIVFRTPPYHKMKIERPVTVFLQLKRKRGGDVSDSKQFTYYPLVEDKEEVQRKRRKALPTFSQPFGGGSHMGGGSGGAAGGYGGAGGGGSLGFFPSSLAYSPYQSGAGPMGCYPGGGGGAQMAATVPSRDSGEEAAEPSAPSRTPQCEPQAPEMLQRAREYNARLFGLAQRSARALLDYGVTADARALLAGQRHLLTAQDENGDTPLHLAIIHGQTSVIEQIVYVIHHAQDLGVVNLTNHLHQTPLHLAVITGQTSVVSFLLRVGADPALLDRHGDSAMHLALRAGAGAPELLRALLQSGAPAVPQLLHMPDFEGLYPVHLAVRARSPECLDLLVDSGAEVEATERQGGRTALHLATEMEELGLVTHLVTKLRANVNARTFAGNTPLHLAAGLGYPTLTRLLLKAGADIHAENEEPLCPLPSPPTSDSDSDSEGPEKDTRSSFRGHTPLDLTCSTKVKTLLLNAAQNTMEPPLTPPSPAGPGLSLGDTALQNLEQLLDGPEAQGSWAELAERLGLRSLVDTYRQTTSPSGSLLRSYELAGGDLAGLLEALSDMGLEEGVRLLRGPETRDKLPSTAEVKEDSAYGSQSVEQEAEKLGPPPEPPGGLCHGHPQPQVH
Sequence of Nuclear factor NF-kappa-B complex (Homo sapiens) (Q04206 whole entry, looked up): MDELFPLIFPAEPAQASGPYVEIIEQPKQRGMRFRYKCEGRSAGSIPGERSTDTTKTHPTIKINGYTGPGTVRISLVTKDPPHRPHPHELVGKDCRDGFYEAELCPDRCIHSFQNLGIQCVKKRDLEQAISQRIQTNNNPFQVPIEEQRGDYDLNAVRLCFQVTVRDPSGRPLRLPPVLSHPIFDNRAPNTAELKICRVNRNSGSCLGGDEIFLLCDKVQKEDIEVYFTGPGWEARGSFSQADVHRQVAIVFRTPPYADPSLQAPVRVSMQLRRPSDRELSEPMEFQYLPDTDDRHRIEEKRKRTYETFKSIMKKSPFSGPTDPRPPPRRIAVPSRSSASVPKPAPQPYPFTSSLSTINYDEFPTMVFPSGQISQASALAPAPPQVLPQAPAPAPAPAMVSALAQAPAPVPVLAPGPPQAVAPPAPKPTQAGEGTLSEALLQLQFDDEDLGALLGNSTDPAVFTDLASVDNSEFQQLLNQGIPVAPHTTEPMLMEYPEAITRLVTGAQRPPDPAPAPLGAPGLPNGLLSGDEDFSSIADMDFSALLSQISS
Sequence of Epidermal growth factor receptor (P00533 whole entry): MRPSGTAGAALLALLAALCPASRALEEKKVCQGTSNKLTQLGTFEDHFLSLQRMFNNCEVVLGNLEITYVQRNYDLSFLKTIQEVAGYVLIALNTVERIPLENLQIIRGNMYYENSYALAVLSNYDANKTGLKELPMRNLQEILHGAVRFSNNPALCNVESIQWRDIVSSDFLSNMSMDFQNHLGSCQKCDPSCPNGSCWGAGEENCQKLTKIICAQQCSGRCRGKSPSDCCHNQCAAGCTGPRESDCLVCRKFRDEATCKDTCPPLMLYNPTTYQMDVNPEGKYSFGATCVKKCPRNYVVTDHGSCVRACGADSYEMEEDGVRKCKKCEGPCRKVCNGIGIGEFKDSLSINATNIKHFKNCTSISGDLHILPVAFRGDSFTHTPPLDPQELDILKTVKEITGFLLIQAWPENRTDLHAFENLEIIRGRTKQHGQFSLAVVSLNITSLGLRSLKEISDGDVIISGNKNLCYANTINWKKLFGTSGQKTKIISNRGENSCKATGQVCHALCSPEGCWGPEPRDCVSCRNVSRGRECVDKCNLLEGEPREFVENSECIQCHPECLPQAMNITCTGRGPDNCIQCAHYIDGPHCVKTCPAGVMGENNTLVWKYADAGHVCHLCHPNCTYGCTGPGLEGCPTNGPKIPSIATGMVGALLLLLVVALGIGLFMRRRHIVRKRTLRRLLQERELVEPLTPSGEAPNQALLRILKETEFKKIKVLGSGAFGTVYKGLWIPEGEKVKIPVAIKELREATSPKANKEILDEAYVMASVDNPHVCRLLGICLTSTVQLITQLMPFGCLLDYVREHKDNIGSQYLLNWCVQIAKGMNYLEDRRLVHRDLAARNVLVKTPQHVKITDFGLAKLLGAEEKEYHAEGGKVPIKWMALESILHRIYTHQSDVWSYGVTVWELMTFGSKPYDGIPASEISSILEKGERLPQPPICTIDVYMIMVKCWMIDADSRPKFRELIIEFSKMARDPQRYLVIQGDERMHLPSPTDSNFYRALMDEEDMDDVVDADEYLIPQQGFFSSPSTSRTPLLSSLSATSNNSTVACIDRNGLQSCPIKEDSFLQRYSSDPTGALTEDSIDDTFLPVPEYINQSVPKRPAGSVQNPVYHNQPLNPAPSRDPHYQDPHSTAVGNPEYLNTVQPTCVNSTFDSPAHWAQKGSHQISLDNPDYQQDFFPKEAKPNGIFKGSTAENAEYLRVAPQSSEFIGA

Take `C/C(=N\NC(=O)/C(C#N)=C1\SC=C(O)N1c1ccccc1)C1CC[C@@]2(C)[C@]3(C)CC=C4C[C@@H](O)CC[C@]4(C)[C@@]3(C)CC[C@]12C` (some centres not stated): the results for the GI50 with MCF7 [1] and with NCI-H460 [2] were 40 nM and 90 nM, respectively.

With `N#Cc1ccc(Oc2ccc(/C=N/Nc3nc(-c4ccc(C#N)cc4)cs3)cc2)cc1`, the Activity in the assay on A549 [3] was found to be 2.3%; in the assay on C6 [4], 4.6%; in the assay on C6 [5], 28.2%; in the assay with A549 [6], 36.5%. Further, in the assay on C6 [7], the inhibition was 71.7%.

`Cc1cc(Cl)cc(C(=O)NC2CCCCC2)c1NC(=O)c1sc(-c2ccccc2Cl)nc1C(F)(F)F` returned an Activity with A549 [8] of 48%.

For `CC(=O)C(C(C)=O)=C1SC=C(n2c(CC#N)nc3ccccc32)N1c1ccccc1`, the pIC50 (with HT-29; in the assay with SMMC-7721; with NCI-H460 [9]; in [10]; in the assay with A549 [11]; in the assay with MKN-45) was 6.60 in each case.

With `Cc1cccc(N(c2cccc(Cl)c2)c2c3ccccc3nc3scnc23)c1`, the pIC50 in the assay with HeLa [12] and in the assay with K562 [13] was 5.24 throughout.

For `CNc1nc(C)c(-c2nc3ccccc3c(=O)n2-c2ccc(Cl)cc2)s1`, the IC in [14] is 3.3 µM.

Take `CCC[C@H](NS(=O)(=O)c1ccc(C)cc1)[C@]1(c2ccccc2Cl)N=C(SCC)SC1=O`: the values for the pIC50 with Jurkat and in the assay with MDA-MB-231 [15] were 4.77 and 4.42, respectively.

Regarding `C[C@@]1(O)[C@@H](COP(=O)(O)OP(=O)(O)OC[C@H]2O[C@@H](c3nc(C(N)=O)cs3)[C@H](O)[C@@H]2O)O[C@@H](n2cnc3c(N)ncnc32)[C@@H]1O`, in the assay on Enterobacter cloacae, the IC came to 0.52 µM.

On to `Clc1ccc(-c2csc(N/N=C/c3ccccn3)n2)cc1`, for which the pIC50 in assay [16] is < 4.52.

Consider `Clc1nccc2c(-c3csc(-c4c[nH]c5ccc(Br)cc45)n3)c[nH]c12`, for which the GI50 in assay [17] is 930 nM.

As for `C/C(=N\N=c1/scc(-c2ccc(Cl)cc2)n1-c1ccccc1)C1CC[C@@]2(C)[C@]3(C)CC=C4C[C@@H](O)CC[C@]4(C)[C@@]3(C)CC[C@]12C` (some centres not stated), the values for the GI50 with SF-268, with MCF7 [18] and in the assay with NCI-H460 [19] were 800 nM, 200 nM and 200 nM, respectively.

As to `C/C(=N\N=c1/scc(-c2ccc(Br)cc2)n1-c1ccccc1)C1CC[C@@]2(C)[C@]3(C)CC=C4C[C@@H](O)CC[C@]4(C)[C@@]3(C)CC[C@]12C` (some centres not stated), the GI50 came out at 400 nM with SF-268, 600 nM with MCF7 [18] and 600 nM with NCI-H460 [19].

As for `O=C(NNc1nc(-c2ccc(Cl)cc2)cs1)N1N=C(c2ccccc2)CC1c1ccccc1` (configuration not stated), the pIC50 in the assay with MCF7 [20] and in the assay with A549 [21] was 5.30 each time.

`CC1=CS/C(=C(/C#N)C(=O)N/N=C(\C)C2CC[C@@]3(C)[C@]4(C)CC=C5C[C@@H](O)CC[C@]5(C)[C@@]4(C)CC[C@]23C)N1c1ccccc1` (some centres not stated): the GI50 in the assay with MCF7 [1] was 20 nM; in the assay on NCI-H460 [2], 10 nM.

As for `COc1ccc(/C=N/Nc2nc(-c3ccccc3)cs2)cc1`, the IC50 with HeLa [22] was 11.1 µg/mL (≈ 35.9 µM).

For the compound `Nc1nc(-c2ccc(Oc3ccc(Cl)cc3)cc2)cs1`, the pIC50 with SMMC-7721 is 5.79; in the assay on HepG2 it was 5.33; in the assay on T47D, 6.04; in the assay with K562 [23] it was 4.91; with HCT-116 [24], 5.42.

Compound `Cn1c(-c2csc(-c3c[nH]c4ncccc34)n2)cc2cc(Br)cnc21` displayed a GI50 in assay [17] of 810 nM.

Consider `O=S1(=O)NCCN1CCNc1nccc(-c2c(-c3ccc(F)cc3)nc3sccn23)n1`, for which the negative logarithm of the IC50 (pIC50) in assay [25] is 5.72.

As for `Clc1cccc(Nc2c3ccccc3nc3sc(NCCN4CCCCC4)nc23)c1`, the pIC50 in the assay with HeLa [12] and in the assay on K562 [13] was 5.24 in each case.

`O=C(Nn1c(-c2ccc(Br)cc2)cs/c1=N\c1ccc([N+](=O)[O-])cc1)c1ccc(Cl)cc1`: the pIC50 in the assay on MCF7 [26] is 5.27; in the assay on MDA-MB-231 [27], 5.27; in assay [28], 5.08; with HeLa [29] it was 5.27; in the assay on HCT-116 [30] it was 5.27.

For the origin of these results see ChEMBL document CHEMBL5244229, “Thiazole-containing compounds as therapeutic targets for cancer therapy” (Eur J Med Chem, 2020).
